This note sets out measurements from US20160002204A1 (Board of Regents, The University of Texas System, priority 2014, published 2016).

In assay [1] the target is T1, GLS1 (purified recombinant human GAC) (Homo sapiens, UniProt O94925).
T1 sequence (O94925 55-598 isoform O94925-3 limits assumed): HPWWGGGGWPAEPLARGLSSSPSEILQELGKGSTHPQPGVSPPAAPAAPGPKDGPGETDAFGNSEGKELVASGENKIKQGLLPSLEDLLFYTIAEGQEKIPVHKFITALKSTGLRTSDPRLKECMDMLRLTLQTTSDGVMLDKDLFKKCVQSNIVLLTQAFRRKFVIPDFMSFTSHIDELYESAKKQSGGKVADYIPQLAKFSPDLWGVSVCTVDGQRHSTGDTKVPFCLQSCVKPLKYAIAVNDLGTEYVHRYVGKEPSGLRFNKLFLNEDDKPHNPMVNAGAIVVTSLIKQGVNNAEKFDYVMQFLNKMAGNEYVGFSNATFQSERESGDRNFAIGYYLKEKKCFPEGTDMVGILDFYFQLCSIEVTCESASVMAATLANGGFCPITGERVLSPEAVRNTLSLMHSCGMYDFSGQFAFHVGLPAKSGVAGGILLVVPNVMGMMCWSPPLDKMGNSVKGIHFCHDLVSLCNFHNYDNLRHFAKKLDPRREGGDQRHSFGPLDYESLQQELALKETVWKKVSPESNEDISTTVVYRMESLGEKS
Briefly: GLS1 enzymatic activity assay (dual-coupled, Amplex UltraRed/resorufin). In kind it is biochemical. In short, it runs like this: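 In this coupled fluorometric format, phosphate-activated GAC (2 nM, 50 mM phosphate) is pre-exposed to compound for 10 min before 1 mM glutamine addition. Product is tracked as resorufin (530/590 nm) over time or at 20 min, and potency is derived by logistic fitting.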

For a further assay, the system named is A549 cells. Nature of the assay: A549 proliferation (viability) assay, Cell Titer Fluor, 72 hours. The class given is cell-based. The settings on record: Homo sapiens. In short, it runs like this: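 Fluorescence read-out (Cell Titer Fluor, 30 min at 37 °C after reagent) after 72 h compound exposure of A549 cells; EC50 by four-parameter logistic curve fit. Cells: 1000/well, RPMI 1640 + 10% dialyzed FBS, 0.5% DMSO final.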

Usually IC50 stands for the concentration needed to halve the response being measured. By EC50 is commonly meant the concentration at which the effect is half-maximal.

SMILES strings stand for the structures.

For the compound `O=C(Cc1cccc(OC(F)(F)F)c1)Nc1ccn(CCCCc2nnc(NC(=O)Cc3cccnc3)s2)c(=O)n1` [Example 81, N-[2-oxo-1-(4-{5-[2-(pyridin-3-yl)acetamido]-1,3,4-thiadiazol-2-yl]butyl)-1,2-dihydropyrimidin-4-yl]-2-[3-(trifluoromethoxy)phenyl]acetamide], the concentration for half-maximal inhibition (IC50) in assay [1] was less than 100 nM. Also, in the assay with A549 cells, the concentration giving a half-maximal response (EC50) lay in the range of 500 to 5000 nM.

Regarding `Cc1ccc(CNC(=O)c2nnc(CCCCn3ccc(NC(=O)CN4CCCCC4)c(F)c3=O)s2)cn1` [Example 462, 5-(4-{3-fluoro-2-oxo-4-[2-(piperidin-1-yl)acetamido]-1,2-dihydropyridin-1-yl}butyl)-N-[(6-methylpyridin-3-yl)methyl]-1,3,4-thiadiazole-2-carboxamide], the IC50 in assay [1] lay within 100 to 500 nM. Also, in the assay on A549 cells, the EC50 lay within 100 to 500 nM.

With `O=C(Cc1cccc(OC(F)(F)F)c1)Nc1ccn(CCCCc2nnc(NC(=O)Cc3ccccc3)s2)c(=O)n1` [Example 19, N-(2-oxo-1-{4-[5-(2-phenylacetamido)-1,3,4-thiadiazol-2-yl]butyl}-1,2dihydropyrimidin-4-yl)-2-[3-(trifluoromethoxy)phenyl]acetamide], the IC50 in assay [1] is less than 100 nM. The compound also displayed an EC50 with A549 cells of 100 to 500 nM.

Turning to `O=C(Cc1ccccc1)Nc1ccc(CCCCn2ccc(NC(=O)OCc3ccccc3)nc2=O)nn1` [Example 96, benzyl N-(2-oxo-1-{4-[6-(2-phenylacetamido)pyridazin-3-yl]butyl}-1,2-dihydropyrimidin-4-yl)carbamate], the concentration for half-maximal inhibition (IC50) in assay [1] was less than 100 nM. Besides, the EC50 in the assay with A549 cells lay in the range of 100 to 500 nM.

On to `CCOC(=O)N1CCC(CC(=O)Nc2ccn(CCC(F)Cn3cc(C(=O)NCc4cc(C(F)(F)F)ccn4)nn3)c(=O)c2F)CC1` (stereo not drawn) [Example 324, ethyl 4-{[(3-fluoro-1-{3-fluoro-4-[4-({[4-(trifluoromethyl)pyridin-2-yl]methyl}carbamoyl)-1H-1,2,3-triazol-1-yl]butyl}-2-oxo-1,2-dihydropyridin-4-yl)carbamoyl]methyl}piperidine-1-carboxylate], for which, in assay [1], the 50% inhibitory concentration (IC50) is less than 100 nM. Further, the concentration for a half-maximal effect (EC50) in the assay with A549 cells was less than 100 nM.

With `O=C(Cc1ccccc1)Nc1ccn(CCCCn2cc(C(=O)NCc3ccccn3)nn2)c(=O)c1` [Example 34, 1-{4-[2-oxo-4-(2-phenylacetamido)-1,2-dihydropyridin-1-yl]butyl}-N-(pyridin-2-ylmethyl)-1H-1,2,3-triazole-4-carboxamide], in assay [1], the IC50 was in the range of 100 to 500 nM. In the assay on A549 cells, this compound had a concentration giving a half-maximal response (EC50) greater than 5000 nM.

In the case of `CC(C)(C)OC(=O)N1CC(CC(=O)Nc2ccn(CCC(F)Cn3cc(C(=O)NCc4cccc(OC(F)(F)F)c4)nn3)c(=O)c2)C1` (stereo not drawn) [Example 277, tert-butyl 3-{[(1-{3-fluoro-4-[4-({[3-(trifluoromethoxy)phenyl]methyl}carbamoyl)-1H-1,2,3-triazol-1-yl]butyl}-2-oxo-1,2-dihydropyridin-4-yl)carbamoyl]methyl}azetidine-1-carboxylate], the IC50 in assay [1] was less than 100 nM. This compound also registered an EC50 with A549 cells of 100 to 500 nM.

With `CC(C)CNC(=O)Nc1nnc(CCCCn2ccc(NC(=O)CC3CCCC3)c(F)c2=O)s1` [Example 128, 2-cyclopentyl-N-(3-fluoro-1-(4-(5-(3-isobutylureido)-1,3,4-thiadiazol-2-yl)butyl)-2-oxo-1,2-dihydropyridin-4-yl)acetamide], in assay [1], the concentration for half-maximal inhibition (IC50) is 100 to 500 nM. The compound also showed an EC50 with A549 cells greater than 5000 nM.

With `Cc1ccc(CNC(=O)c2cn(CC(F)CCn3ccc(NC(=O)CC4CCC4)c(F)c3=O)nn2)cn1` (stereo not drawn) [Example 304, 1-(4-(4-(2-cyclobutylacetamido)-3-fluoro-2-oxopyridin-1(2H)-yl)-2-fluorobutyl)-N-((6-methylpyridin-3-yl)methyl)-1H-1,2,3-triazole-4-carboxamide], the IC50 in assay [1] is less than 100 nM. In the assay with A549 cells, this compound came in with a half-maximal effective concentration (EC50) of less than 100 nM.

In the case of `O=C(CN1CCSCC1)Nc1ccn(CCC(F)Cn2cc(C(=O)NCc3cccc(OC(F)(F)F)c3)nn2)c(=O)c1` (stereo not drawn) [Example 228, 1-(2-fluoro-4-{2-oxo-4-[2-(thiomorpholin-4-yl)acetamido]-1,2-dihydropyridin-1-yl}butyl)-N-{[3-(trifluoromethoxy)phenyl]methyl}-1H-1,2,3-triazole-4-carboxamide], in assay [1], the half-inhibitory concentration (IC50) was less than 100 nM. For the same compound, the 50% effective concentration (EC50) with A549 cells was less than 100 nM.

For `O=C(Cc1ccccc1)Nc1cnn(CCC(F)Cn2cc(C(=O)NCc3cccc(OC(F)(F)F)c3)nn2)c(=O)c1` (stereo not drawn) [Example 263, 1-{2-fluoro-4-[6-oxo-4-(2-phenylacetamido)-1,6-dihydropyridazin-1-yl]butyl}-N-{[3-(trifluoromethoxy)phenyl]methyl}-1H-1,2,3-triazole-4-carboxamide], the half-inhibitory concentration (IC50) in assay [1] is less than 100 nM. In addition, in the assay with A549 cells, the concentration for a half-maximal effect (EC50) lay within 100 to 500 nM.

Turning to `CC(C)(C)COC(=O)Nc1ccn(CCC(F)Cn2cc(C(=O)NCc3cccc(OC(F)(F)F)c3)nn2)c(=O)n1` (stereo not drawn) [Example 493, 2,2-dimethylpropyl N-(1-{3-fluoro-4-[4-({[3-(trifluoro-methoxy)phenyl]methyl}carbamoyl)-1H-1,2,3-triazol-1-yl]butyl}-2-oxo-1,2-dihydropyrimidin-4-yl)carbamate], in assay [1], the 50% inhibitory concentration (IC50) is less than 100 nM. Besides, the concentration giving a half-maximal response (EC50) in the assay with A549 cells is less than 100 nM.

As for `O=C(Cc1cccc(OC(F)(F)F)c1)Nc1ccc(CCCCn2ccc(NC(=O)Cc3ccccn3)nc2=O)nn1` [Example 118, N-[6-(4-{2-oxo-4-[2-(pyridin-2-yl)acetamido]-1,2-dihydropyrimidin-1-yl}butyl)pyridazin-3-yl]-2-[3-(trifluoromethoxy)phenyl]acetamide], the IC50 in assay [1] was less than 100 nM. Further, the concentration giving a half-maximal response (EC50) in the assay with A549 cells is less than 100 nM.

For the compound `COc1ccc(CC(=O)Nc2ccn(CCC(F)Cn3cc(C(=O)NCc4cccc(OC(F)(F)F)c4)nn3)c(=O)c2)cn1` (stereo not drawn) [Example 240, 1-(2-fluoro-4-{4-[2-(6-methoxypyridin-3-yl)acetamido]-2-oxo-1,2-dihydropyridin-1-yl}butyl)-N-{[3-(trifluoromethoxy)phenyl]methyl}-1H-1,2,3-triazole-4-carboxamide], the 50% inhibitory concentration (IC50) in assay [1] was less than 100 nM. The compound also had an EC50 with A549 cells of 500 to 5000 nM.

Take `O=C(CN1CCC(F)C1)Nc1ccn(CCC(F)Cn2cc(C(=O)NCc3cccc(OC(F)(F)F)c3)nn2)c(=O)c1` (stereo not drawn) [Example 227, 1-(2-fluoro-4-{4-[2-(3-fluoropyrrolidin-1-yl)acetamido]-2-oxo-1,2-dihydropyridin-1-yl}butyl)-N-{[3-(trifluoromethoxy)phenyl]methyl}-1H-1,2,3-triazole-4-carboxamide]: in assay [1], the IC50 was less than 100 nM. Further, the EC50 in the assay with A549 cells was in the range of 100 to 500 nM.

As to `Cc1cccc(CNC(=O)c2cn(CCC(F)Cn3ccc(NC(=O)Cc4ccccc4)cc3=O)nn2)n1` (stereo not drawn) [Example 162, 1-{3-fluoro-4-[2-oxo-4-(2-phenylacetamido)-1,2-dihydropyridin-1-yl]butyl}-N-[(6-methylpyridin-2-yl)methyl]-1H-1,2,3-triazole-4-carboxamide], the IC50 in assay [1] was less than 100 nM. In the assay with A549 cells, the EC50 was in the range of 500 to 5000 nM.

Take `Cc1ccc(CNC(=O)c2cn(CC(F)CCn3ccc(NC(=O)CC4CCCCO4)cc3=O)nn2)cn1` (stereo not drawn) [Example 195, 1-(2-fluoro-4-{4-[2-(oxan-2-yl)acetamido]-2-oxo-1,2-dihydropyridin-1-yl}butyl)-N-[(6-methylpyridin-3-yl)methyl]-1H-1,2,3-triazole-4-carboxamide]: the concentration for half-maximal inhibition (IC50) in assay [1] fell in the range of 100 to 500 nM. The compound also came in with an EC50 in the assay on A549 cells of 500 to 5000 nM.

As for `O=C(NCc1cccc(OC(F)(F)F)c1)c1cn(CC(F)CCn2ccc(NC(=O)C(F)c3ccccc3)c(F)c2=O)nn1` (stereo not drawn) [Example 327, 1-{2-fluoro-4-[3-fluoro-4-(2-fluoro-2-phenylacetamido)-2-oxo-1,2-dihydropyridin-1-yl]butyl}-N-{[3-(trifluoromethoxy)phenyl]methyl}-1H-1,2,3-triazole-4-carboxamide], in assay [1], the IC50 was less than 100 nM. In the assay with A549 cells, this compound displayed an EC50 of less than 100 nM.

For `CC(=O)N1CCC(CC(=O)Nc2ccn(CCC(F)Cn3cc(C(=O)NCc4cccc(OC(F)(F)F)c4)nn3)c(=O)c2)CC1` (stereo not drawn) [Example 244, 1-(4-{4-[2-(1-acetylpiperidin-4-yl)acetamido]-2-oxo-1,2-dihydropyridin-1-yl}-2-fluorobutyl)-N-{[3-(trifluoromethoxy)phenyl]methyl}-1H-1,2,3-triazole-4-carboxamide], the IC50 in assay [1] was less than 100 nM. Further, the EC50 in the assay with A549 cells was 500 to 5000 nM.

`O=C(O)C(=O)Nc1ccn(CCC(F)Cn2cc(C(=O)NCc3cccc(OC(F)(F)F)c3)nn2)c(=O)c1F` (stereo not drawn) [Example 359, [(3-fluoro-1-{3-fluoro-4-[4-({[3-(trifluoromethoxy)phenyl]methyl}carbamoyl)-1H-1,2,3-triazol-1-yl]butyl}-2-oxo-1,2-dihydropyridin-4-yl)carbamoyl]formic acid]: the half-maximal inhibitory concentration (IC50) in assay [1] lay within 100 to 500 nM. Further, the EC50 with A549 cells was 500 to 5000 nM.

In the case of `CC(C)(C)CC(=O)Nc1ccn(CCC(F)Cn2cc(C(=O)NCc3cccc(OC(F)(F)F)c3)nn2)c(=O)c1F` (stereo not drawn) [Example 340, 1-{4-[4-(3,3-dimethylbutanamido)-3-fluoro-2-oxo-1,2-dihydropyridin-1-yl]-2-fluorobutyl}-N-{[3-(trifluoromethoxy)phenyl]methyl}-1H-1,2,3-triazole-4-carboxamide], the IC50 in assay [1] was less than 100 nM. In the assay on A549 cells, this compound yielded an EC50 of less than 100 nM.
